Data published in patent US20180049995A1, “HIF-2-ALPHA INHIBITOR POLYMORPHS” (PELOTON THERAPEUTICS, INC., priority 2015, published 2018).
≈ marks a conversion by molar mass, not a printed value. Like-named read-outs stand apart in the source and are kept apart here. Each block holds one compound with its values, some of them ahead of it.

Experiments:
Type in all cases: physicochemical
[1] = Competitive slurries of Form A and Form B (XRPD)
Experimental: Slurry experiments were performed at ambient, 40° C. and 60° C. temperatures using 2-propanol, tert-butyl methyl ether, toluene and ethanol as solvents.
(§1) Saturated solutions of 2-propanol, tert-butylmethyl ether, toluene and ethanol were prepared at ambient temperature. ca. 25 mg of Form A and Form B were weighed into a vial to create 50 mg 50:50 wt/wt mixture of the two batches. The appropriate solvent was added to the mixture and the resulting slurry was stirred for 48 h at ambient temperature, before the solid was analyzed by XRPD.
as §1, with “40° C.” for “ambient temperature.”, “40° C.,” for “ambient temperature,”
as §1, with “2-propanol,” for “2-propanol, tert-butylmethyl ether,”, “60° C.” for “ambient temperature.”, “60° C.,” for “ambient temperature,”

[2] = Solubility screen for Form A in organic solvents
Experimental: A solubility screen for Form A was conducted in 24 solvents. About 5 mg of Form A was placed in each of 24 vials and 5 volume aliquots of the appropriate solvent systems listed in Table 1 were added to the appropriate vial. Between each addition, the mixture was checked for dissolution by visual inspection, and if no dissolution was apparent, the mixture was heated to ca. 40° C. and checked again. This procedure was continued until dissolution was observed or until 100 volumes of solvent had been added.
Form A appeared to be highly soluble (above ˜100 mg/mL) in a number of solvents, […] diisopropyl ether, heptane and toluene. These solvents were identified as possible anti-solvents for the primary polymorph screen. Additional solvent/water mixtures suitable for freeze drying were tested.

[3] = Aqueous solubility (24 h mixing, filtrate by HPLC); conditions: thermodynamic from solid
Experimental: The aqueous solubility of several lots of Forms A and B were measured. […] The sample was filtered using a syringe filter and the filtrate was analyzed by HPLC to determine the solubility. The remaining solid was analysis by XRPD to determine its form and crystallinity. Solubility data for micronized materials was also collected. As noted in Table 3, slight variations in aqueous solubility were noted, particularly for the micronized samples.

[4] = 7-Day stability study (XRPD and HPLC after storage)
Experimental: The stability of Forms A and B were measured following storage for 7-days at ambient, 40° C./75% RH and 80° C. About 15 mg of Forms A and B were individually placed in each of 3 vials and stored uncapped for 7 days under the following conditions; ambient, 40° C./75% RH, 80° C. Following the 7 days, XRPD analysis was performed on each sample to determine its form and crystallinity and HPLC analysis was conducted to determine the sample purity.

Form by XRPD after competitive slurry ([1]; 2-Propanol, 40° C., 48 h): Form B
Form by XRPD after competitive slurry ([1]; 2-Propanol, 60° C., 48 h, footnote: Primarily Form B): Mixture^a
Form by XRPD after competitive slurry ([1]; 2-Propanol, Ambient, 48 h): Form B
Form by XRPD after competitive slurry ([1]; Ethanol, 40° C., 48 h): Form B
Form by XRPD after competitive slurry ([1]; Ethanol, 60° C., 48 h, footnote: primarily Form A with some Form B present): Mixture^b
Form by XRPD after competitive slurry ([1]; Ethanol, Ambient, 48 h): Form B
Form by XRPD after competitive slurry ([1]; Ethanol, Repeat 60° C., only Form B observed): Form B^b
Form by XRPD after competitive slurry ([1]; TBME, 40° C., 48 h): Form B
Form by XRPD after competitive slurry ([1]; TBME, Ambient, 48 h): Form B
Form by XRPD after competitive slurry ([1]; Toluene, 40° C., 48 h): Form B
Form by XRPD after competitive slurry ([1]; Toluene, 60° C., 48 h): Form B
Form by XRPD after competitive slurry ([1]; Toluene, Ambient, 48 h): Form B
Compound: CS(=O)(=O)c1ccc(Oc2cc(F)cc(C#N)c2)c2c1[C@H](O)C(F)(F)C2 (mixture of isomers) [50:50 wt/wt mixture, (S)-3-((2,2-difluoro-1-hydroxy-7-(methylsulfonyl)-2,3-dihydro-1H-inden-4-yl)oxy)-5-fluorobenzonitrile]

solubility ([2]; 40 °C, organic solvent or mixture, thermodynamic from solid, 1,4-Dioxane, solubility observed at 40° C., read-out: Solubility): > 200 mg/mL
solubility ([2]; 40 °C, organic solvent or mixture, thermodynamic from solid, Acetonitrile, solubility observed at 40° C., read-out: Solubility): > 200 mg/mL
solubility ([2]; 40 °C, organic solvent or mixture, thermodynamic from solid, Diisopropyl ether, solubility observed at 40° C., read-out: Solubility): > 2 mg/mL
solubility ([2]; 40 °C, organic solvent or mixture, thermodynamic from solid, Methyl isobutyl ketone, solubility observed at 40° C., read-out: Solubility): 160 mg/mL (≈ 417 mM)
Solubility in words ([2]; THF:Water (50%), separation into API-saturated THF layer and API-free aqueous layer observed): Sufficient solubility
solubility ([2]; aqueous with cosolvent or surfactant or cyclodextrin, thermodynamic from solid, Acetone: Water (60%), read-out: Solubility): < 2 mg/mL
solubility ([2]; aqueous with cosolvent or surfactant or cyclodextrin, thermodynamic from solid, Ethanol: Water (50%), read-out: Solubility): < 2 mg/mL
solubility ([2]; aqueous with cosolvent or surfactant or cyclodextrin, thermodynamic from solid, Methanol: Water (50%), read-out: Solubility): < 2 mg/mL
solubility ([2]; aqueous with cosolvent or surfactant or cyclodextrin, thermodynamic from solid, THF: Water (50%), read-out: Solubility): 100 mg/mL (≈ 261 mM)
solubility ([2]; organic solvent or mixture, thermodynamic from solid, 2-Propanol, read-out: Solubility): 9 mg/mL (≈ 23.5 mM)
solubility ([2]; organic solvent or mixture, thermodynamic from solid, Acetone: Water (5%), read-out: Solubility): > 200 mg/mL
solubility ([2]; organic solvent or mixture, thermodynamic from solid, Acetone: Water (20%), read-out: Solubility): > 200 mg/mL
solubility ([2]; organic solvent or mixture, thermodynamic from solid, Acetone, read-out: Solubility): > 200 mg/mL
solubility ([2]; organic solvent or mixture, thermodynamic from solid, Acetonitrile: Water (10%), read-out: Solubility): > 200 mg/mL
solubility ([2]; organic solvent or mixture, thermodynamic from solid, Dichloromethane, read-out: Solubility): 80 mg/mL (≈ 209 mM)
solubility ([2]; organic solvent or mixture, thermodynamic from solid, Dimethylformamide, read-out: Solubility): > 200 mg/mL
solubility ([2]; organic solvent or mixture, thermodynamic from solid, Dimethylsulfoxide, read-out: Solubility): 160 mg/mL (≈ 417 mM)
solubility ([2]; organic solvent or mixture, thermodynamic from solid, Ethanol, read-out: Solubility): 60 mg/mL (≈ 157 mM)
solubility ([2]; organic solvent or mixture, thermodynamic from solid, Ethyl acetate, read-out: Solubility): 160 mg/mL (≈ 417 mM)
solubility ([2]; organic solvent or mixture, thermodynamic from solid, Heptane, read-out: Solubility): < 2 mg/mL
solubility ([2]; organic solvent or mixture, thermodynamic from solid, Isopropyl acetate, read-out: Solubility): 90 mg/mL (≈ 235 mM)
solubility ([2]; organic solvent or mixture, thermodynamic from solid, Methanol, read-out: Solubility): 90 mg/mL (≈ 235 mM)
solubility ([2]; organic solvent or mixture, thermodynamic from solid, Methyl acetate, read-out: Solubility): > 200 mg/mL
solubility ([2]; organic solvent or mixture, thermodynamic from solid, Methylethyl ketone, read-out: Solubility): > 200 mg/mL
solubility ([2]; organic solvent or mixture, thermodynamic from solid, N-Methyl-2-pyrrolidone, read-out: Solubility): 130 mg/mL (≈ 339 mM)
solubility ([2]; organic solvent or mixture, thermodynamic from solid, Tetrahydrofuran, read-out: Solubility): > 200 mg/mL
solubility ([2]; organic solvent or mixture, thermodynamic from solid, Toluene, read-out: Solubility): > 2 mg/mL
solubility ([2]; organic solvent or mixture, thermodynamic from solid, in a number of solvents, read-out: Solubility (highly soluble)): > 100 mg/mL
solubility ([2]; organic solvent or mixture, thermodynamic from solid, tert-Butylmethyl ether, read-out: Solubility): 35 mg/mL (≈ 91.3 mM)
Solubility in words ([2]; water (hydrophobic behavior observed), diisopropyl ether, heptane and toluene): insoluble
solubility ([2]; water, thermodynamic from solid, Water, read-out: Solubility): < 2 mg/mL
solubility at 24 h ([3]; fassif, Fasted State Simulated Small Intestinal Fluid, read-out: Aqueous Solubility FaSSIF): 63 µg/mL (≈ 0.164 mM)
solubility at 24 h ([3]; fessif, Fed State Simulated Small Intestinal Fluid, read-out: Aqueous Solubility FeSSIF): 86 µg/mL (≈ 0.224 mM)
solubility at 24 h ([3]; pH 1.2, simulated gastric fluid, pH 1.2, read-out: Aqueous Solubility pH 1.2): 29 µg/mL (≈ 0.0756 mM)
solubility at 24 h ([3]; pH 6.5, aqueous buffer, pH 6.5, read-out: Aqueous Solubility pH 6.5): 25 µg/mL (≈ 0.0652 mM)
solubility at 24 h ([3]; pH 7.4, aqueous buffer, pH 7.4, read-out: Aqueous Solubility pH 7.4): 26 µg/mL (≈ 0.0678 mM)
Crystallinity after storage ([4]; 7 days at 80° C.): appeared to lose crystallinity
Form change by XRPD after storage ([4]; 7 days uncapped, ambient, 40° C./75% RH, 80° C.): no signs of form change
Purity by HPLC after storage ([4]; 7 days, over all three conditions (ambient, 40° C./75% RH, 80° C.)): 99.0%
Compound: CS(=O)(=O)c1ccc(Oc2cc(F)cc(C#N)c2)c2c1[C@H](O)C(F)(F)C2 [Form A, (S)-3-((2,2-difluoro-1-hydroxy-7-(methylsulfonyl)-2,3-dihydro-1H-inden-4-yl)oxy)-5-fluorobenzonitrile]

Purity by HPLC after storage ([4]; 7 days at 80° C., drop from 99.7%): 99.3%
Crystallinity after storage ([4]; 7 days, over the three conditions (ambient, 40° C./75% RH, 80° C.)): maintained crystallinity
Thermodynamic stability of the form (conclusion of competitive slurries) ([1]; all solvents, ambient, 40° C. and 60° C.): the most thermodynamically form
Compound: CS(=O)(=O)c1ccc(Oc2cc(F)cc(C#N)c2)c2c1[C@H](O)C(F)(F)C2 [Form B, (S)-3-((2,2-difluoro-1-hydroxy-7-(methylsulfonyl)-2,3-dihydro-1H-inden-4-yl)oxy)-5-fluorobenzonitrile]
